# Assay results published in patent US7955852B2, “Expansion of renewable stem cell populations” (Gamida Cell Ltd., priority 2002, dated 2011).
# Values joined by “and” are separate entries in the source; they are usually repeats but may differ in a detail not shown here. Identical values can stand only once.
# What was measured:
# Format in all cases: cell-based, human
# mononuclear cells = assay: Ex-vivo expansion of whole mononuclear cell fraction (MNC) cultures; FACS of reselected CD34+ cells; settings: 10^−6 M + cytokines; for % CD34/Lin−: reselected CD34+ fraction, listed as RAR antagonist
# Experimental: (§1) Human blood cells were obtained from umbilical cord blood from female patients following full-term, normal delivery (informed consent was obtained).
# (§2) Samples were collected and processed within 12 hours postpartum. Blood was mixed with 3% Gelatin (Sigma, St. Louis, Mo.), sedimented for 30 minutes to remove most red blood cells. The leukocyte-rich fraction was harvested and layered on a Ficoll-Hypaque gradient (1.077 gram/ml; Sigma), and centrifuged at 400 g for 30 minutes. The mononuclear cell fraction in the interface layer was collected, washed three times and resuspended in phosphate-buffered saline (PBS) solution (Biological Industries) containing 0.5% bovine serum albumin (BSA, Fraction V; Sigma).
# Alternatively, whole mononuclear fraction cells (MNC) were isolated, cultured and supplemented with cytokines, as above.
# CD34^+ purified and whole MNC cultures were prepared and maintained as described above. AGN 194310 RAR antagonist was added to test cultures at concentrations ranging from 1×10^−3-1×10^−11 M [or 410 μg/l to 4.1×10^−5 μg/l]. The antagonist was added for a predetermined, limited period, for up to three weeks or continuously during the entire culture period.
# (§3) CD34 surface expression on short and long-term cultures initiated either with purified CD34^+ cells or the entire MNC fraction was determined as follows: CD34^+ cells were positively reselected (Miltenyi kit) and counted. Purity was confirmed by subsequent FACS and cell morphology analysis.
# (§4) Reselected CD34^+ cell subsets were stained for the following combination of antigens: CD34PE/CD38FITC and CD34PE/38, 33, 14, 15, 3, 4, 61, 19 (Lin) FITC. The fraction positive for CD34 and negative for CD38 was defined as CD34^+CD38^−. The fraction positive for CD34 and negative for LIN was defined as CD34^+Lin^− cell fraction.
# (§5) Total cell counts, numbers of CD34^+ cells and subsets, and CFU numbers are presented as cumulative numbers, with the assumption that the cultures had not been passaged; i.e., the number of cells per ml were multiplied by the number of passages performed.
# CD34+ cells [1] = assay: Colony forming unit (CFU / LTC-CFUc) ability of ex-vivo CD34+ cell cultures; settings: for No. of CFU*103: 10^−5 M, treated for one week only
# Experimental: as §5
# Cells were cloned in semi-solid, methylcellulose-containing medium supplemented with 2 IU/ml erythropoietin (Eprex, Cilag AG Int., Switzerland), stem cell factor and IL-3, both at 20 ng/ml, and G-CSF and GM-CSF, both at 10 ng/ml (all from Perpo Tech). Cultures were incubated for 14 days at 37° C., 5% CO2 in a humidified atmosphere.
# Briefly, the ability of the cultures to maintain self-renewal was measured by determination of the content of colony forming unit cells in the long and extended long-term cultures (LTC-CFUc), as described in the references hereinabove.
# CD34+ cells [2] = assay: Ex-vivo expansion of CD34+ cell enriched cord blood cultures with cytokines; cell counts and FACS surface antigen analysis; settings: for No. of CD34+ cells: treated for one week only; for % 34+ cells / % 34+/38− cells / % 34+/Lin− cells / No. of cells (×10^4): two weeks after seeding, 4 cytokines
# Experimental: as §1
# as §2, with “The leukocyte-rich fraction was harvested and layered on a Ficoll-Hypaque gradient (1.077 gram/ml; Sigma), and centrifuged at 400 g for 30 minutes.” left out
# To purify CD34^+ mononuclear cells, the fraction was subjected to two cycles of immuno-magnetic separation using the MiniMACS® or Clinimax® CD34 Progenitor Cell Isolation Kit (Miltenyi Biotec, Auburn, Calif.) as per manufacturer's recommendations.
# CD34^+ expressing purified cells above were cultured in 24-well Costar Cell Culture Clusters (Corning Inc., Corning, N.Y.) or culture bags (American Fluoroseal Corp), at a concentration of 10^4 cells/ml in alpha medium (Biological Industries, Beit Haemek, Israel) supplemented with 10% fetal bovine serum (FBS, Biological Industries). The following human recombinant cytokines were added: Thrombopoietin (TPO), interleukin-6 (IL-6), FLT-3 ligand and stem cell factor (SCF), all at final concentrations of 50 ng/ml each, though occasionally IL-3, at a concentration of 20 ng/ml, was added either together or instead of SCF. For non-hematopoietic cell differentiation, FGF, EGF, NGF, VEGF, LIF or Hepatocyte growth factor (HGF) were used to supplement the growth medium, either alone or in various combinations. All cytokines used were purchased from Perpo Tech, Inc. (Rocky Hill, N.J.). The cultures were incubated at 37° C., 5% CO2, in a humidified atmosphere.
# At weekly intervals, cell cultures were toped and semi-depopulated and were supplemented with fresh medium, serum and cytokines or supplemented with fresh growth medium, alone. At predetermined time points, cells were harvested, stained with trypan blue, counted, and cell morphology was determined via the use of cytospin (Shandon, UK)-prepared smears stained with May-Grunwald/Giemsa solutions.
# CD34^+ purified and whole MNC cultures were prepared and maintained as described above. […] The antagonist was added for a predetermined, limited period, for up to three weeks or continuously during the entire culture period.
# Cells were harvested, washed with a PBS solution containing 1% bovine sera albumin (BSA) and 0.1% sodium azide (Sigma), and stained at 4° C. for 60 minutes with fluorescein isothiocyanate or phycoerythrin-conjugated antibodies (all from Immunoquality Products, the Netherlands). The cells were then washed with the same buffer and analyzed by FACS caliber or Facstarplus flow cytometers. Cells were passed at a rate of 1000 cells/second, using saline as the sheath fluid. A 488 nm argon laser beam served as the light source for excitation. Emission of ten thousand cells was measured using logarithmic amplification, and analyzed using CellQuest software. Negative control staining of cells was accomplished with mouse IgG-PE (Dako A/S Glostrup, Denmark) and mouse IgG-FITC (BD Biosciences, Erembodegem, Belgium).
# as §3, §4
# FACS analysis results are given as percentage values of cells. Absolute numbers of subsets are calculated from the absolute number of CD34^+ cells.
# [3] = 2 weeks expansion, re-selected CD34+ cell fraction (FIG. 2)
structure (smiles),measurement,setting,value
"CCc1ccc(C2=CC(C)(C)Sc3ccc(C#Cc4ccc(C(=O)O)cc4)cc32)cc1 [AGN 194310, 4-[[4-(4-ethylphenyl)-2,2-dimethyl-(2H)-thiochroman-6-yl]-ethynyl]benzoic acid]",No of CD34+/Lin− × 10^4 (cumulative value),mononuclear cells; 2 weeks,132.5 × 10^4
same,No of CD34 cells × 10^4 (cumulative value),mononuclear cells; 2 weeks,169 × 10^4
same,% CD34/Lin−,mononuclear cells; 2 weeks,78% and 78.4%
same,No of CD34+/Lin− × 10^4 (cumulative value),mononuclear cells; 5 weeks,237.8 × 10^4
same,No of CD34 cells × 10^4 (cumulative value),mononuclear cells; 5 weeks,985 × 10^4
same,% CD34/Lin−,mononuclear cells; 5 weeks,24% and 24.1%
same,No. of CFU*103,CD34+ cells [1]; week 13,66355 *103
same,No. of CFU*103,CD34+ cells [1]; week 20,0 *103
same,increase of CFU content,"CD34+ cells [1]; extended long-term (8-10 week) cultures, pulse-treatment or continuous treatment",15 ×10^4
same,increase in CFU content as compared to control,CD34+ cells [1]; long-term (6 weeks) cultures pulsed for the first 3 weeks,5 fold
same,increase in CFU content as compared to control,"CD34+ cells [1]; long-term cultures, antagonist administered continuously",5 fold
same,mixed colony forming unit (CFU-mix) content vs control,"CD34+ cells [1]; long-term cultures, pulsed first 3 weeks or continuous (FIG. 7)",dramatic increase
same,increase in CD34+CD38− surface expression,CD34+ cells [2]; [3],1000 fold
same,increase in CD34+Lin− surface expression,CD34+ cells [2]; [3],500 fold
same,No. of CD34+ cells,"CD34+ cells [2]; 10^−5 M, week 13",10322
same,No. of CD34+ cells,"CD34+ cells [2]; 10^−5 M, week 20",0
same,% 34+ cells,CD34+ cells [2]; 10^−5 M,18.94%
same,% 34+/38− cells,CD34+ cells [2]; 10^−5 M,17.14%
same,% 34+/Lin− cells,CD34+ cells [2]; 10^−5 M,15.18%
same,No. of cells (×10^4),CD34+ cells [2]; 10^−5 M,42 ×10^4
same,% 34+ cells,CD34+ cells [2]; 10^−6 M,19.59%
same,% 34+/38− cells,CD34+ cells [2]; 10^−6 M,17.16%
same,% 34+/Lin− cells,CD34+ cells [2]; 10^−6 M,11.91%
same,No. of cells (×10^4),CD34+ cells [2]; 10^−6 M,52 ×10^4
same,time post initial seeding until which cell proliferation was enabled,CD34+ cells [2]; 10^−7 M or 0.41 microgram/liter (FIG. 4),≤ 11 weeks
same,activity on ex vivo expansion of stem/progenitor cells,"CD34+ cells [2]; 10^−7 M, along with IL-3, 3 and 5 weeks",moderate activity
same,increase in CD34+Lin− surface expression,"CD34+ cells [2]; after two weeks in culture, CD34+ re-selected fraction (FIG. 3C)",530 fold
same,increase in CD34+ expression between week three to eleven,"CD34+ cells [2]; antagonist for the first three weeks only, then eight weeks without",92 fold
same,"expression of differentiation associated antigens CD33, CD14, CD15, CD4, CD3, CD19 and CD61","CD34+ cells [2]; two weeks, FACS (FIGS. 1A-C)",significantly inhibited
same,expression of the CD38 antigen,"CD34+ cells [2]; two weeks, FACS (FIGS. 1A-C)",completely abolished
same,expansion of CD34+ compartment since the initiation of the cultures,"CD34+ cells [2]; week 11, antagonist for the first three weeks only",1621 fold
same,increase in CD34+Lin− expression,"CD34+ cells [2]; week eleven, 9 weeks after termination of antagonist treatment","16,700 fold"
